# Laboratory results taken from US6383479B1, “Neutrophil-activating factor” (Novartis AG, priority 1987, dated 2002).
# Starred links: 1 amine or outer side, 2 acyl side, 3 side chain; linkers in the order of their positions; H or OH if unused. Positions of bridges follow the written chain, without caps; N, C: chain ends. Non-standard residues stand in square brackets, D forms with d. Residues, ends and D or L forms follow the SMILES beside them. Chains are numbered I, II in the order given. Actinocin(9to1) = Cc1c2oc3c(C)ccc(C(=O)[*:1])c3nc-2c(C(=O)[*:2])c(N)c1=O; NMeV = CN[C@H](C(=O)O)C(C)C; Sar = CNCC(=O)O
# B1: C5a: anaphylatoxin (protein, UniProt P01031 678-751, looked up)
# C5a anaphylatoxin: TLQKKIEEIAAKYKHSVVKKCCYDGACVNNDETCEQRAARISLGPRCIKAFTECCVVASQLRANISHKDMQLGR
# modifications: C5a anaphylatoxin
# What was measured:
# human neutrophils [1] = assay: superoxide formation (SOD-sensitive cytochrome c reduction) by human neutrophils; assay type: cell-based; settings: 1 μm PAF for 2 minutes
# Experimental: a) Superoxide production: neutrophils (3×10^6 /ml) are preincubated at 37° with or without 1 μm PAF for 2 minutes and then stimulated with increasing amounts of NAF. Recordings of cytochrome c reduction following NAF addition are shown.
# Superoxide formation is measured at 37° as the SOD sensitive reduction of ferricytochrome c (M. Markert et al., Methods Enzymol. 132 [1984] 267). The assay mixture (800 μl) consists of 0.75×10^6 cells/ml PBS-BSA containing 85 μM cytochrome c. Absorbance changes are recorded in a Hewlett-Packard 8451A diode array spectrophotometer equipped with a thermostated seven-place cuvette exchanger. Table 4 documents the capacity of NAF to elicit the respiratory burst in human neutrophils: […]
# human neutrophils [2] = settings: Wymann et al., J. Biol. Chem. 262 [1987] 12048; cited from earlier work
# [3] = system: New Zealand albino rabbits; assay: neutrophil accumulation and plasma leakage in rabbit skin after intradermal injection; assay type: in vivo; settings: 2 h; for effect on neutrophil accumulation induced by NAF: NAF 10^−9 moles; for effect on neutrophil accumulation induced by fMLP: fMLP 10^−9 moles
# Source text: Inflammatory responses are examined in the skin of conscious 2.0 to 2.5 kg New Zealand albino rabbits. Erythrocytes in blood from donor rabbits are sedimented with hydroxyethyl cellulose (Polysciences, Warrington, Pa.) and neutrophils in the resultant leucocyte-rich plasma are purified (>94% neutrophils) by density gradient centrifugation on Percoll (Pharmacia, Uppsala, Sweden). Cells are resuspended in Ca^2+ and Mg^2+—free Tyrode's solution containing 10% platelet poor plasma to a concentration of 10^6 leukocytes/ml and labeled for 15 min at room temperature with 40 μCi ^111indium-oxine (Amersham) per 10^6 cells. The labeled cells are washed by centrifugation through 10% platelet-poor plasma and approximately 10^6 cells per recipient are mixed with 10 μCi ^125iodine-labeled human serum albumin (Amersham) and injected intravenously through the lateral ear vein of rabbits with inflammatory lesions under study. Intradermal injections of inflammatory agents are then made and animals are killed 2 h later in studies with actinomycin D and polymyxin B, and 4 h later in dose-response experiments. Midway through the period that radiolabeled cells are in circulation, a blood sample is collected and the specific activities of neutrophils and plasma in blood are determined. Radioactivity in inflammatory lesions at the end of each experiment are determined in a multichannel gamma counter, the activity in control skin sites is subtracted and the absolute number of neutrophils and volume of plasma accumulating in inflammatory lesions are calculated from the specific activities. Neutrophil numbers in inflammatory lesions are standardised between animals by expressing the results as cell number per 10^6 neutrophils circulating per ml peripheral blood, according to the method of Cybulsky et al., Am. J. Pathol. 124 [1986] 367.
# Recombinant NAF obtained as described under Example 19 is dissolved at 400 μg/ml in minimal essential medium (50 mM) plus 0.45 M NaCl (pH 6.5). Endotoxin (E. coli serotype 055:B5, Sigma, St. Louis, Mo.) is dissolved in pyrogen-free normal saline. fMLP is dissolved in dimethyl sulphoxide at 10^−2 M and diluted to working concentrations in PFS. Polymyxin B and actinomycin D are dissolved in 1 ml ethanol and diluted 20 fold by mixing with NAF, endotoxin or fMLP in PFS. In studies on inhibition of inflammatory responses 40 μg polymyxin B and 10^−7 moles actinomycin D are injected per skin site with […] endotoxin. In all experiments 0.2 ml of inflammatory agents are injected intradermally per site through 26 gauge needles, with 5 replicates of each treatment in each animal.
# Rabbit neutrophils = assay: NAF-induced exocytosis in rabbit neutrophils (N-acetyl-β-glucosaminidase release); assay type: cell-based; settings: stimulus 100.0 nM, 15 min, cytochalasin B pretreated; purified natural NAF
# Experimental: Rabbit neutrophils are isolated from peripheral blood (obtained from the ear vein or artery) by dextran sedimentation followed by Hypaque-Ficoll density gradient centrifugation. Purified natural NAF is used.
# Exocytosis conditions: 0.6×10^6 cells (in a total volume of 0.15 ml) pretreated with cytochalasin B for 5 min at 37° are stimulated with NAF (0.1-100 nM) or fMLP (100 nM) for 15 min. N-acetyl-β-glucosaminidase, an azurophil granule marker, is determined in the cell-free medium.
# human neutrophils [4] = assay: hydrogen peroxide formation by chemiluminescence in human neutrophils; assay type: cell-based
# Experimental: b) H2O2-dependent chemiluminescence: the progress curves following stimulation with partially purified NAF and approximately equiactive concentrations of C5a and fMLP are shown on the left. The initial phase of the response is detailed on the right. The stimulants are added in 50 μl of PBS-BSA.
# Lower graphs: respiratory burst induced by natural (left) and recombinant (right) NAF. Neutrophils (10^6 cells/ml) are stimulated with 3, 10 and 30 nM NAF at time zero and hydrogen peroxide production is measured by chemiluminescence (M. P. Wymann et al., Anal. Biochem. 165 [1987] 371-378).
# The properties of NAF, fMLP and C5a as stimuli of the respiratory burst are compared by assessing the production of superoxide or hydrogen peroxide by the stimulated cells. Superoxide formation is determined as described in Example 13. Hydrogen peroxide formation is determined by chemiluminescence (M. P. Wymann et al., Anal. Biochem. 165 [1987] 371-378). The assay mixture consisting of PBS-BSA containing 0.1 M sodium azide, 0.01 mM luminol, 9 U/ml horseradish peroxidase and 10^6 neutrophils is preincubated for 10 min at 37° and the reaction is started by adding the stimulus via a microsyringe.
# human neutrophils [5] = assay: stimulus-dependent exocytosis of granule contents by human neutrophils; assay type: cell-based; settings: fMLP 0.1 μM
# Experimental: Neutrophils (5×10^6/ml) suspended in PBS/BSA are preincubated with or without cytochalasin B (5 μg/ml) at 37° for 5 min.
# Granule release is then initiated by adding the stimulus, e.g. NAF or a standard stimulus. The reaction is stopped 15 min later by rapid cooling in ice followed by centrifugation to sediment the cells. Vitamin B12-binding protein, β-glucuronidase and lactate dehydrogenase are determined in the cell-free media and cell pellets, and the release of these constituents is calculated in percent of the total cellular content (B. Dewalt and M. Baggiolini, Methods Enzymol. 132 [1986] 267).
# Natural and recombinant NAF are tested in parallel on human neutrophils. They elicit virtually identical changes in cytosolic free Ca^2+, yielding a maximum rise at a concentration as low as 3 nM (FIG. 15). A nearly identical concentration-dependent respiratory burst response is obtained with both preparations in the range of 1 to 30 nM as assessed by chemiluminescence. The equivalence between natural and recombinant NAF is also reflected by chemotaxis and exocytosis measurements. Chemotactic migration is observed between 0.1 and 10 nM with a maximum effect at 1 nM. (Table 6). With either peptide a significant release of vitamin B12-binding protein from the specific granules at 0.3 nM and of beta-glucuronidase from the azurophil granules at 1 nM is observed.
# human monocytes = assay: NAF production by stimulated human mononuclear cells/monocytes (read out as elastase release); assay type: cell-based; settings: mononuclear cell fraction; PHA 5 μg/ml or ConA 10 μg/ml
# Experimental: […] At various time intervals the media are collected, cleared by centrifugation (20000 rpm for 20 min. at 4° C.) and NAF activity is measured. Cells from a single donor; means of duplicate cultures.
# Human monocytes are isolated from buffy coats of donor blood (Swiss Red Cross Laboratory, Bern, Switzerland) by centrifugation through a Ficoll-Paque gradient. This method separates neutrophils from the so-called mononuclear cells, a mixture of monocytes (about 20%) and lymphocytes (about 80%). Three monocyte preparations are used: (i) the total mononuclear cell fraction, (ii) monocytes enriched from the mononuclear cell fraction by adherence, and (iii) 90% pure monocytes separated from the lymphocytes by centrifugal elutriation (G. Garotta et al., Biochem. Biophys. Res. Comm. 140 [1986] 948-954 and K. J. Clemetson et al., J. Exp. Med. 161 [1985] 972-983). […] At different times, aliquots of the culture media are sampled and NAF activity is determined as the capacity to induce the release of elastase from human neutrophils pretreated with cytochalasin B (B. Dewald et al., Biochem. Pharmacol. 36 [1987] 2505-2510).
# Mononuclear cell cultures (5×10^6 cells/ml) consisting of monocytes and lymphocytes in a ratio of approximately 1:5 produce NAF when stimulated with LPS (100 ng/ml). NAF accumulates in the medium over 24 h and the production levels off between 24 h and 48 h. […]
# [6] = exposure to fresh human serum, then activity (superoxide production); assay type: in vitro ADME; settings: 15 minutes with fresh human serum
# Experimental: C5A and NAF are incubated for 15 minutes with fresh human serum or with PBS and the activity of the preparations is determined (superoxide production).
# Since C5a and NAF have similar effects on neutrophils, further experiments must be performed to discriminate entirely between the two. Samples of NAF and C5a are exposed to fresh human serum.
# neutrophils = assay: sequential/repeated stimulation of neutrophils (desensitization, superoxide formation); assay type: cell-based, human; settings: superoxide formation
# Experimental: a) Neutrophils (3×10^6 /ml) are preincubated at 37° C. for 5 min. and then stimulated with different agonists as indicated (arrows).
# b) Sequential or repeated stimulation with NAF and C5a. Conditions as in a).
# Arrows show addition of agonists as indicated. The concentration of C5a is 0.5 nM in a) and 0.2 nM in b), that of fMLP is 20 nM in both experiments. The agonists are added in 50 μl of PBS-BSA.
# On the other hand, when agonists acting on different receptors are used in sequence.(e.g. fMLP followed by C5a) these stimulations yield a normal response. Experiments of this type are therefore used to find out whether NAF acts by its own receptor or via a receptor also used by other agonists.
# [7] = with CB (cytochalasin B 5 μg/ml)
molecule,measurement,setting,value
"1-0-hexadecyl-2-0-acetyl-sn-glycero-3-phosphocholine [PAF, reference compound]",effect of pretreatment of the cells with PAF on the superoxide response to NAF,human neutrophils [1],markedly enhanced
same,"time between stimulus addition and onset of H2O2 production, as previously reported",human neutrophils [2],about 2 sec
"Cc1c2oc3c(C)ccc(C(=O)N[C@@H]4C(=O)N[C@H](C(C)C)C(=O)N5CCC[C@H]5C(=O)N(C)CC(=O)N(C)[C@@H](C(C)C)C(=O)O[C@@H]4C)c3nc-2c(C(=O)N[C@@H]2C(=O)N[C@H](C(C)C)C(=O)N3CCC[C@H]3C(=O)N(C)CC(=O)N(C)[C@@H](C(C)C)C(=O)O[C@@H]2C)c(N)c1=O [actinomycin D] (I: T[dV]P[Sar][NMeV] / II: T[dV]P[Sar][NMeV]; ester I:1-I:C, II:1-II:C; linker I:N-II:N via Actinocin(9to1))",effect on neutrophil accumulation induced by NAF,[3]; actinomycin D 10^−7 moles/site,no effect
same,inhibition of neutrophil accumulation induced by endotoxin,"[3]; actinomycin D 10^−7 moles/site, endotoxin 10^−13 moles",90%
same,effect on neutrophil accumulation induced by fMLP,[3]; actinomycin D 10^−7 moles/site,no effect
"CSCC[C@H](NC=O)C(=O)N[C@@H](CC(C)C)C(=O)N[C@@H](Cc1ccccc1)C(=O)O [fMLP, N-formyl-L-methionyl-L-leucyl-L-phenylalanine, reference compound]",N-acetyl-β-glucosaminidase,Rabbit neutrophils,181 pmol/min
same,time between stimulus addition and onset of H2O2 production,human neutrophils [4],about 2 sec
same,"time between stimulus addition and onset of H2O2 production, as previously reported",human neutrophils [2],about 2 sec
same,Percent release of Vit. B12-binding protein,human neutrophils [5]; [7],35.6 ± 5.5%
same,Percent release of lactate dehydrogenase,human neutrophils [5]; [7],5.3 ± 1.6%
same,Percent release of β-glucuronidase,human neutrophils [5]; [7],12.1 ± 4.4%
same,Percent release of Vit. B12-binding protein,human neutrophils [5]; without CB,14.0 ± 0.9%
same,Percent release of lactate dehydrogenase,human neutrophils [5]; without CB,5.7 ± 1.1%
same,Percent release of β-glucuronidase,human neutrophils [5]; without CB,2.3 ± 0.8%
CCCCC/C=C\C[C@@H](O)/C=C/C=C/C=C\[C@@H](O)CCCC(=O)O [leukotriene B4],"time between stimulus addition and onset of H2O2 production, as previously reported",human neutrophils [2],about 2 sec
Polymyxin B,effect on neutrophil accumulation induced by NAF,[3]; polymyxin B 40 μg/site,without effect
same,inhibition of the response to endotoxin,"[3]; polymyxin B 40 μg/site, endotoxin 10^−13 moles",84%
same,effect on neutrophil accumulation induced by fMLP,[3]; polymyxin B 40 μg/site,without effect
concanavalin A [ConA],time at which maximum of NAF production is reached,human monocytes,about 24 h
phytohemagglutinin [PHA],time at which maximum of NAF production is reached,human monocytes,about 24 h
B1,time between stimulus addition and onset of H2O2 production,human neutrophils [4],about 2 sec
same,"time between stimulus addition and onset of H2O2 production, as previously reported",human neutrophils [2],about 2 sec
same,effect of serum treatment on activity,[6],completely abolishes
same,desensitization to a second stimulation with the same agonist,neutrophils,complete desensitization
